Laboratory results reported in the NIST ThermoML archive (doi:10.1016/j.tca.2012.08.009).
Numbers after ± are expanded uncertainties.

Experiments:
[1] = 298.15 K, 101 kPa, Liquid; for viscosity: Capillary tube (Ostwald / Ubbelohde) method; for speed of sound: Linear variable-path acoustic interferometer; for mass density: Vibrating tube method
[2] = refractive index (Na D-line) (dimensionless); settings: 298.15 K; 101.33 kPa; Liquid; Standard Abbe refractometry
[3] = cn = amount concentration of the nth substance listed, in mol/dm3; settings: 298.15 K, 101 kPa, Liquid; for molar conductivity: Alternating current cell with electrodes; for viscosity: Capillary tube (Ostwald / Ubbelohde) method; for speed of sound: Linear variable-path acoustic interferometer; for mass density: Vibrating tube method
[4] = refractive index (Na D-line) (dimensionless); cn = amount concentration of the nth substance listed, in mol/dm3; settings: 298.15 K, 101 kPa, Liquid, Standard Abbe refractometry
[5] = wn = mass fraction of the nth substance listed; settings: 298.15 K, 101 kPa, Liquid; for viscosity: Capillary tube (Ostwald / Ubbelohde) method; for speed of sound: Linear variable-path acoustic interferometer; for mass density: Vibrating tube method
[6] = refractive index (Na D-line) (dimensionless); wn = mass fraction of the nth substance listed; settings: 298.15 K, 101 kPa, Liquid, Standard Abbe refractometry

SMILES: CC#N [acetonitrile]
- viscosity [1]: 0.343 ± 0.007 mPa·s
- speed of sound [1]: 1281.5 ± 2.4 m/s
- mass density [1]: 776.74 ± 0.61 kg/m3
- refractive index [2]: 1.3418 ± 0.0006

SMILES: [Cl-].[Li+] [lithium chloride] + C1COCO1
- molar conductivity ([3]; c1 = 3.525e-05): 0.003047 ± 1.8e-05 S·m2/mol
- molar conductivity ([3]; c1 = 3.871e-05): 0.002972 ± 1.8e-05 S·m2/mol
- molar conductivity ([3]; c1 = 4.453e-05): 0.002875 ± 1.7e-05 S·m2/mol
- molar conductivity ([3]; c1 = 4.924e-05): 0.002803 ± 1.7e-05 S·m2/mol
- molar conductivity ([3]; c1 = 5.609e-05): 0.00273 ± 1.6e-05 S·m2/mol
- molar conductivity ([3]; c1 = 6.159e-05): 0.002693 ± 1.6e-05 S·m2/mol
- molar conductivity ([3]; c1 = 6.635e-05): 0.002673 ± 1.6e-05 S·m2/mol
- molar conductivity ([3]; c1 = 7.162e-05): 0.002663 ± 1.6e-05 S·m2/mol
- molar conductivity ([3]; c1 = 7.442e-05): 0.002672 ± 1.6e-05 S·m2/mol
- molar conductivity ([3]; c1 = 7.691e-05): 0.002715 ± 1.6e-05 S·m2/mol
- molar conductivity ([3]; c1 = 7.721e-05): 0.002746 ± 1.6e-05 S·m2/mol
- molar conductivity ([3]; c1 = 7.779e-05): 0.002778 ± 1.7e-05 S·m2/mol
- viscosity ([3]; c1 = 0.0142): 0.597 ± 0.009 mPa·s
- viscosity ([3]; c1 = 0.0284): 0.598 ± 0.009 mPa·s
- viscosity ([3]; c1 = 0.0426): 0.601 ± 0.009 mPa·s
- viscosity ([3]; c1 = 0.0568): 0.603 ± 0.009 mPa·s
- viscosity ([3]; c1 = 0.071): 0.606 ± 0.009 mPa·s
- viscosity ([3]; c1 = 0.0852): 0.608 ± 0.009 mPa·s
- speed of sound ([3]; c1 = 0.0142): 1344.6 ± 2.2 m/s
- speed of sound ([3]; c1 = 0.0284): 1356.8 ± 2.2 m/s
- speed of sound ([3]; c1 = 0.0426): 1373.9 ± 2.2 m/s
- speed of sound ([3]; c1 = 0.0568): 1394.7 ± 2.2 m/s
- speed of sound ([3]; c1 = 0.071): 1420.8 ± 2.3 m/s
- speed of sound ([3]; c1 = 0.0852): 1451.4 ± 2.3 m/s
- mass density ([3]; c1 = 0.0142): 1058.75 ± 0.68 kg/m3
- mass density ([3]; c1 = 0.0284): 1058.9 ± 0.68 kg/m3
- mass density ([3]; c1 = 0.0426): 1059.11 ± 0.68 kg/m3
- mass density ([3]; c1 = 0.0568): 1059.4 ± 0.68 kg/m3
- mass density ([3]; c1 = 0.071): 1059.75 ± 0.68 kg/m3
- mass density ([3]; c1 = 0.0852): 1060.14 ± 0.68 kg/m3
- refractive index ([4]; c1 = 0.0142): 1.398 ± 0.0006
- refractive index ([4]; c1 = 0.0284): 1.3988 ± 0.0006
- refractive index ([4]; c1 = 0.0426): 1.3994 ± 0.0006
- refractive index ([4]; c1 = 0.0568): 1.4 ± 0.0006
- refractive index ([4]; c1 = 0.071): 1.4005 ± 0.0006
- refractive index ([4]; c1 = 0.0852): 1.401 ± 0.0006

SMILES: C1COCO1 [1,3-dioxolane] + CC#N
- viscosity ([5]; w2 = 0): 0.597 ± 0.009 mPa·s
- viscosity ([5]; w2 = 0.25): 0.533 ± 0.009 mPa·s
- viscosity ([5]; w2 = 0.5): 0.471 ± 0.008 mPa·s
- viscosity ([5]; w2 = 0.75): 0.407 ± 0.008 mPa·s
- speed of sound ([5]; w2 = 0): 1338.9 ± 2.5 m/s
- speed of sound ([5]; w2 = 0.25): 1324.6 ± 2.5 m/s
- speed of sound ([5]; w2 = 0.5): 1310.2 ± 2.4 m/s
- speed of sound ([5]; w2 = 0.75): 1295.8 ± 2.4 m/s
- mass density ([5]; w2 = 0): 1058.72 ± 0.96 kg/m3
- mass density ([5]; w2 = 0.25): 979.95 ± 0.82 kg/m3
- mass density ([5]; w2 = 0.5): 909.57 ± 0.75 kg/m3
- mass density ([5]; w2 = 0.75): 841.47 ± 0.67 kg/m3
- refractive index ([6]; w2 = 0): 1.3974 ± 0.0006
- refractive index ([6]; w2 = 0.25): 1.3835 ± 0.0006
- refractive index ([6]; w2 = 0.5): 1.3696 ± 0.0006
- refractive index ([6]; w2 = 0.75): 1.3557 ± 0.0006

SMILES: [I-].[Li+] [lithium iodide] + C1COCO1
- molar conductivity ([3]; c1 = 8.17e-06): 0.001792 ± 1.1e-05 S·m2/mol
- molar conductivity ([3]; c1 = 1.498e-05): 0.000612 ± 4e-06 S·m2/mol
- molar conductivity ([3]; c1 = 2.075e-05): 0.000192 ± 1e-06 S·m2/mol
- molar conductivity ([3]; c1 = 2.568e-05): 0.000191 ± 1e-06 S·m2/mol
- molar conductivity ([3]; c1 = 2.997e-05): 0.000418 ± 3e-06 S·m2/mol
- molar conductivity ([3]; c1 = 3.702e-05): 0.000994 ± 6e-06 S·m2/mol
- molar conductivity ([3]; c1 = 4.495e-05): 0.001751 ± 1.1e-05 S·m2/mol
- molar conductivity ([3]; c1 = 5.081e-05): 0.00241 ± 1.4e-05 S·m2/mol
- molar conductivity ([3]; c1 = 5.66e-05): 0.003074 ± 1.8e-05 S·m2/mol
- molar conductivity ([3]; c1 = 6.421e-05): 0.003828 ± 2.3e-05 S·m2/mol
- molar conductivity ([3]; c1 = 6.958e-05): 0.004382 ± 2.6e-05 S·m2/mol
- molar conductivity ([3]; c1 = 7.293e-05): 0.004735 ± 2.8e-05 S·m2/mol
- viscosity ([3]; c1 = 0.0142): 0.601 ± 0.009 mPa·s
- viscosity ([3]; c1 = 0.0284): 0.607 ± 0.009 mPa·s
- viscosity ([3]; c1 = 0.0427): 0.614 ± 0.009 mPa·s
- viscosity ([3]; c1 = 0.057): 0.621 ± 0.009 mPa·s
- viscosity ([3]; c1 = 0.0714): 0.628 ± 0.009 mPa·s
- viscosity ([3]; c1 = 0.0858): 0.635 ± 0.009 mPa·s
- speed of sound ([3]; c1 = 0.0142): 1350.6 ± 2.2 m/s
- speed of sound ([3]; c1 = 0.0284): 1377.7 ± 2.3 m/s
- speed of sound ([3]; c1 = 0.0427): 1416.8 ± 2.3 m/s
- speed of sound ([3]; c1 = 0.057): 1469.7 ± 2.4 m/s
- speed of sound ([3]; c1 = 0.0714): 1539.7 ± 2.6 m/s
- speed of sound ([3]; c1 = 0.0858): 1630.2 ± 2.7 m/s
- mass density ([3]; c1 = 0.0142): 1058.82 ± 0.68 kg/m3
- mass density ([3]; c1 = 0.0284): 1059.06 ± 0.68 kg/m3
- mass density ([3]; c1 = 0.0427): 1059.4 ± 0.68 kg/m3
- mass density ([3]; c1 = 0.057): 1059.82 ± 0.68 kg/m3
- mass density ([3]; c1 = 0.0714): 1060.32 ± 0.68 kg/m3
- mass density ([3]; c1 = 0.0858): 1060.86 ± 0.68 kg/m3
- refractive index ([4]; c1 = 0.0142): 1.3988 ± 0.0006
- refractive index ([4]; c1 = 0.0284): 1.3997 ± 0.0006
- refractive index ([4]; c1 = 0.0427): 1.4004 ± 0.0006
- refractive index ([4]; c1 = 0.057): 1.4011 ± 0.0006
- refractive index ([4]; c1 = 0.0714): 1.4018 ± 0.0006
- refractive index ([4]; c1 = 0.0858): 1.4024 ± 0.0006

SMILES: C1COCO1 [1,3-dioxolane]
- viscosity [1]: 0.597 ± 0.009 mPa·s
- speed of sound [1]: 1338.9 ± 2.5 m/s
- mass density [1]: 1058.72 ± 0.96 kg/m3
- refractive index [2]: 1.3974 ± 0.0006

SMILES: [Br-].[Li+] [lithium bromide] + C1COCO1
- molar conductivity ([3]; c1 = 2.686e-05): 0.002392 ± 1.4e-05 S·m2/mol
- molar conductivity ([3]; c1 = 3.525e-05): 0.002226 ± 1.3e-05 S·m2/mol
- molar conductivity ([3]; c1 = 4.178e-05): 0.002164 ± 1.3e-05 S·m2/mol
- molar conductivity ([3]; c1 = 4.7e-05): 0.002136 ± 1.3e-05 S·m2/mol
- molar conductivity ([3]; c1 = 5.127e-05): 0.002128 ± 1.3e-05 S·m2/mol
- molar conductivity ([3]; c1 = 5.483e-05): 0.002127 ± 1.3e-05 S·m2/mol
- molar conductivity ([3]; c1 = 5.868e-05): 0.002129 ± 1.3e-05 S·m2/mol
- molar conductivity ([3]; c1 = 6.267e-05): 0.002145 ± 1.3e-05 S·m2/mol
- molar conductivity ([3]; c1 = 6.635e-05): 0.002167 ± 1.3e-05 S·m2/mol
- molar conductivity ([3]; c1 = 7.115e-05): 0.002199 ± 1.3e-05 S·m2/mol
- molar conductivity ([3]; c1 = 7.52e-05): 0.002233 ± 1.3e-05 S·m2/mol
- molar conductivity ([3]; c1 = 7.917e-05): 0.002272 ± 1.4e-05 S·m2/mol
- viscosity ([3]; c1 = 0.0142): 0.599 ± 0.009 mPa·s
- viscosity ([3]; c1 = 0.0284): 0.603 ± 0.009 mPa·s
- viscosity ([3]; c1 = 0.0426): 0.607 ± 0.009 mPa·s
- viscosity ([3]; c1 = 0.0569): 0.612 ± 0.009 mPa·s
- viscosity ([3]; c1 = 0.0712): 0.617 ± 0.009 mPa·s
- viscosity ([3]; c1 = 0.0855): 0.622 ± 0.009 mPa·s
- speed of sound ([3]; c1 = 0.0142): 1347.4 ± 2.2 m/s
- speed of sound ([3]; c1 = 0.0284): 1366.8 ± 2.2 m/s
- speed of sound ([3]; c1 = 0.0426): 1394.6 ± 2.3 m/s
- speed of sound ([3]; c1 = 0.0569): 1430.9 ± 2.3 m/s
- speed of sound ([3]; c1 = 0.0712): 1475.6 ± 2.4 m/s
- speed of sound ([3]; c1 = 0.0855): 1531.8 ± 2.4 m/s
- mass density ([3]; c1 = 0.0142): 1058.79 ± 0.68 kg/m3
- mass density ([3]; c1 = 0.0284): 1059 ± 0.68 kg/m3
- mass density ([3]; c1 = 0.0426): 1059.29 ± 0.68 kg/m3
- mass density ([3]; c1 = 0.0569): 1059.65 ± 0.68 kg/m3
- mass density ([3]; c1 = 0.0712): 1060.05 ± 0.68 kg/m3
- mass density ([3]; c1 = 0.0855): 1060.52 ± 0.68 kg/m3
- refractive index ([4]; c1 = 0.0142): 1.3984 ± 0.0006
- refractive index ([4]; c1 = 0.0284): 1.3993 ± 0.0006
- refractive index ([4]; c1 = 0.0426): 1.4001 ± 0.0006
- refractive index ([4]; c1 = 0.0569): 1.4008 ± 0.0006
- refractive index ([4]; c1 = 0.0712): 1.4014 ± 0.0006
- refractive index ([4]; c1 = 0.0855): 1.402 ± 0.0006

SMILES: CC#N [acetonitrile] + C1COCO1
- viscosity ([5]; w1 = 1): 0.343 ± 0.007 mPa·s
- speed of sound ([5]; w1 = 1): 1281.5 ± 2.4 m/s
- mass density ([5]; w1 = 1): 776.74 ± 0.61 kg/m3
- refractive index ([6]; w1 = 1): 1.3418 ± 0.0006
